Test results as given in patent US5811512A, “Non-peptide peptidomimetics and related cyclic hexapeptides” (The Trustees of the University of Pennsylvania, priority 1996, dated 1998).
pIC50: −log10 of the molar value. Where a SMILES comes first, the peptide text is derived from it. [ ]: non-standard residue; d: D form. Phe(4-F) = N[C@@H](Cc1ccc(F)cc1)C(=O)O; 1Nal = N[C@@H](Cc1cccc2ccccc12)C(=O)O; d(hPhe) = N[C@H](CCc1ccccc1)C(=O)O; Cha = N[C@@H](CC1CCCCC1)C(=O)O

Columns and labels:
SRIF receptor = SRIF receptor affinity: displacement of 125I-CGP-23996 from AtT-20 cells; type: binding
Description: The affinity of a variety of compounds for the SRIF receptor was determined by studying the displacement of ^125 I-CGP-23996 from AtT-20 cells using the method generally in accordance with Raynor and Reisine, Journal of Pharmacology and Experimental Therapeutics, 1989, 251;2, 510.

β-adrenergic receptor = experiment: Radioligand displacement from AtT-20 and brain cells, β-adrenergic receptor; type: binding
[1] = target: T1, human neurokinin-1 receptor (NK1R) (Homo sapiens, UniProt P25103); experiment: Substance P receptor binding: 125I-substance P displacement from human NK1R expressed in COS cells; settings: for pIC50: 125I-SP, COS cells expressing human NK1R, read-out: IC50 (concentration required to inhibit the binding of substance P to the human neurokinin-1 receptor by 50%)
T1 construct: the cDNA for the human NK1R was cloned into the expression vector pCDM9; expressed in transfected cells; host or cells: COS cells (transient, electroporation, vector pCDM9)
Description: The affinity of a variety of compounds for the substance P receptor was determined employing the following procedure.
A. Receptor Expression in COS
To express the cloned human neurokinin-1 receptor (NK1R) transiently in COS, the cDNA for the human NK1R was cloned into the expression vector pCDM9 which was derived from pCDM8 (Invitrogen) by inserting the ampicillin resistance gene (nucleotide 1973 to 2964 from Bluescript SK+) into the Sac II site. Transfection of 20 μg of the plasmid DNA into 10 million COS cells was achieved by electroporation in 800 μl of the transfection buffer ([…], 1.2 mM MgCl2, 2.4 mM K2 HPO4, 0.6 mM KH2 PO4, 10 nM glucose, 10 mM HEPES pH 7.4) at 260V and 950 μF using the IBI Genezapper (IBI, New Haven, Conn.). The cells were incubated in 10% fetal calf serum, 2 mM glutamine, 100 U/ml penicillin-streptomycin, and 90% DMEM media (Gibco, Grand Island, N.Y.) in 5% CO2 at 37° C. for three days before the binding assay.
B. Assay Protocol using COS
The binding assay of human NK1R expressed in COS cells is based on the use of ^125 I-substance P (^125 I-SP, from DuPont, Boston, Mass.) as a radioactively labeled ligand which competes with unlabeled substance P or any other ligand for binding to the human NK1R. Monolayer cell cultures of COS were dissociated by the non-enzymatic solution (Specialty Media, Lavallette, N.J.) and resuspended in appropriate volume of the bind buffer (50 mM Tris pH 7.5, 5 mM MnCl2, 150 mM NaCl, 0.04 mg/ml bacitracin, 0.004 mg/ml leupeptin, 0.2 mg/ml BSA, 0.01 mM phosphoramidon) such that 200 μl of the cell suspension would give rise to about 10,000 cpm of specific ^125 I-SP binding (approximately 50,000 to 200,000 cells). In the binding assay, 200 μl of cells were added to a tube containing 20 μl of 1.5 to 2.5 nM of ^125 I-SP and 20 μl of unlabeled substance P or any other test compound. The tubes were incubated at 4° C. or at room temperature for 1 hour with gentle shaking. The bound radioactivity was separated from unbound radioactivity by GF/C filter (Brandel, Gaithersburg, Md.) which was pre-wetted with 0.1 polyethylenimine. The filter was washed with 3 ml of wash buffer (50 Tris pH 7.5, 5 mM MnCl21 150 mM NaCl) three times and its radioactivity was determined by gamma counter.
A variety of compounds were tested according to the COS cell procedure. The concentration of compound required to inhibit the binding of substance P to the human neurokinin-1 receptor by 50% was measured.

[2] = displacement of 125I-CGP-23996, AtT-20 cells

T1 sequence (P25103 whole entry): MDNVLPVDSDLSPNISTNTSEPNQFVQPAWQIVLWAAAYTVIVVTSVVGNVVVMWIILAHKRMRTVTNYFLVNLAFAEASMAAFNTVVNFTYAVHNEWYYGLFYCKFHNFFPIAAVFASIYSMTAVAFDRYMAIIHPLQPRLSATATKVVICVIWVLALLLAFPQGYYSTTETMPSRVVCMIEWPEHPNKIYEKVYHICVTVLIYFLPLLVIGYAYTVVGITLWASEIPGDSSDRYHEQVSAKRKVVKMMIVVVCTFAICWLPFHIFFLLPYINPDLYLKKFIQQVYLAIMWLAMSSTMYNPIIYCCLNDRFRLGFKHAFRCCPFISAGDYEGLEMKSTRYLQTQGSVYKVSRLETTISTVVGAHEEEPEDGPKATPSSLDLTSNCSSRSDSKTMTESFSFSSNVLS

Row | Structure (SMILES) | pIC50 (HIV-1 protease) | other results
1 | C[C@@H](O)[C@@H]1NC(=O)[C@H](Cc2ccccc2)NC(=O)[C@@H](Cc2c[nH]c3ccccc23)NC(=O)[C@H](CC(=O)O)NC(=O)[C@@H]2CCCN2C(=O)[C@H](Cc2ccccc2)NC1=O [(18b), Cyclo (Asp-D-Trp-Phe-Thr-Phe-Pro)] (cyclo(D[dW]FTFP)) | 5.40 | –
2 | CO[C@@H]1O[C@H](COCCCCCN)[C@@H](OCc2ccccc2)[C@H](OCc2ccccc2)[C@H]1OCc1ccccc1 [Compound 8, Methyl 6-O-(5-aminopentyl)-2,3,4-tri-O-benzyl-β-D-glucopyranoside] | – | binding to SRIF receptor (SRIF receptor): is bound by; pIC50 (SRIF receptor; [2]): 4.40; binding to β-adrenergic receptor (β-adrenergic receptor): does not bind; Binding Inhibition (β-adrenergic receptor; 125I-CYP (0.1 nM), AtT-20): 0%; binding to substance P receptor [1]: is bound by; pIC50 [1]: 6.08
3 | C[C@@H](O)[C@@H]1NC(=O)[C@H](Cc2ccc(O)cc2)NC(=O)[C@@H](Cc2c[nH]c3ccccc23)NC(=O)[C@H](Cc2ccccc2)NC(=O)[C@@H]2CCCN2C(=O)[C@H](Cc2ccccc2)NC1=O [(17c), Cyclo (Phe-D-Trp-Tyr-Thr-Phe-Pro)] (cyclo(FPF[dW]YT)) | 5.67 | –
4 | C[C@@H]1NC(=O)[C@@H](Cc2c[nH]c3ccccc23)NC(=O)[C@H](Cc2ccccc2)NC(=O)[C@@H]2CCCN2C(=O)[C@H](Cc2ccccc2)NC(=O)[C@H]([C@@H](C)O)NC1=O [(17d), Cyclo (Phe-D-Trp-Ala-Thr-Phe-Pro)] (cyclo(ATFPF[dW])) | 5.05 | –
5 | C[C@@H](O)[C@@H]1NC(=O)[C@H](Cc2ccccc2)NC(=O)[C@@H](Cc2c[nH]c3ccccc23)NC(=O)[C@H]2CCCN2C(=O)[C@@H]2CCCN2C(=O)[C@H](Cc2ccccc2)NC1=O [(18c), Cyclo (D-Pro-D-Trp-Phe-Thr-Phe-Pro)] (cyclo(FP[dP][dW]FT)) | 7.29 | –
6 | C[C@@H](O)[C@@H]1NC(=O)[C@H](Cc2ccccc2)NC(=O)[C@@H](Cc2c[nH]c3ccccc23)NC(=O)[C@H](Cc2c[nH]c3ccccc23)NC(=O)[C@@H]2CCCN2C(=O)[C@H](Cc2ccccc2)NC1=O [(18e), Cyclo (Trp-D-Trp-Phe-Thr-Phe-Pro)] (cyclo(FPW[dW]FT)) | 7.14 | –
7 | C[C@@H](O)[C@@H]1NC(=O)[C@H](Cc2ccccc2)NC(=O)[C@@H](Cc2c[nH]c3ccccc23)NC(=O)[C@@H](CCc2ccccc2)NC(=O)[C@@H]2CCCN2C(=O)[C@H](Cc2ccccc2)NC1=O [(18g), Cyclo (D-Homo-Phe-D-Trp-Phe-Thr-Phe-Pro)] (cyclo(FP[d(hPhe)][dW]FT)) | 6.79 | –
8 | C[C@@H](O)[C@@H]1NC(=O)[C@H](Cc2ccccc2)NC(=O)[C@@H](Cc2c[nH]c3ccccc23)NC(=O)[C@H](CO)NC(=O)[C@@H]2CCCN2C(=O)[C@H](Cc2ccccc2)NC1=O [(18a), Cyclo (Ser-D-Trp-Phe-Thr-Phe-Pro)] (cyclo(FPS[dW]FT)) | 5.66 | –
9 | C[C@@H](O)[C@@H]1NC(=O)[C@H](Cc2ccccc2)NC(=O)[C@@H](Cc2c[nH]c3ccccc23)NC(=O)[C@H](CC2CCCCC2)NC(=O)[C@@H]2CCCN2C(=O)[C@H](Cc2ccccc2)NC1=O [(18h), Cyclo (Cha-D-Trp-Phe-Thr-Phe-Pro)] (cyclo([Cha][dW]FTFP)) | 6.15 | –
10 | C[C@@H](O)[C@@H]1NC(=O)[C@H](Cc2ccc(F)cc2)NC(=O)[C@@H](Cc2c[nH]c3ccccc23)NC(=O)[C@H](Cc2ccccc2)NC(=O)[C@@H]2CCCN2C(=O)[C@H](Cc2ccccc2)NC1=O [(17f), Cyclo (Phe-D-Trp-p-F-Phe-Thr-Phe-Pro)] (cyclo(FPF[dW][Phe(4-F)]T)) | 7.43 | –
11 | C[C@@H]1NC(=O)[C@@H]2CCCN2C(=O)[C@H](Cc2ccccc2)NC(=O)[C@H]([C@@H](C)O)NC(=O)[C@H](Cc2ccccc2)NC(=O)[C@@H](Cc2c[nH]c3ccccc23)NC1=O [(18d), Cyclo (Ala-D-Trp-Phe-Thr-Phe-Pro)] (cyclo(A[dW]FTFP)) | 5.66 | –
12 | CC(=O)NCCCCCOC[C@H]1O[C@@H](OCCc2cn(S(=O)(=O)c3ccccc3)c3ccccc23)[C@H](OCc2ccccc2)[C@@H](OCc2ccccc2)[C@@H]1OCc1ccccc1 [Compound 7, 2-(1-Phenylsulfonyl-indol-3yl)ethyl-6-O-(5-acetamidopentyl)-2,3,4-tri-O-benzyl-β-D-glucopyranoside] | – | pIC50 [1]: 7.25
13 | CC(C)[C@@H]1NC(=O)[C@H](CCCCN)NC(=O)[C@@H](Cc2c[nH]c3ccccc23)NC(=O)[C@H](Cc2ccc(O)cc2)NC(=O)[C@H](C)N(C)C(=O)[C@H](Cc2ccccc2)NC1=O [MK 678, reference compound] | – | pIC50 (SRIF receptor; [2]): 7.22
14 | OC[C@@H]1C[C@H](OCc2ccccc2)[C@@H](OCc2ccccc2)[C@H](OCCc2c[nH]c3ccccc23)O1 [Compound 11, 2-Indol-3-yl-ethyl-2,3,-di-O-benzyl-4-deoxy-β-D-glucopyranoside] | – | pIC50 [1]: 6.40
15 | C[C@@H](O)[C@@H]1NC(=O)[C@H](Cc2ccccc2)NC(=O)[C@@H](Cc2c[nH]c3ccccc23)NC(=O)[C@H](Cc2ccccc2)NC(=O)[C@@H]2CCCN2C(=O)[C@H](Cc2ccccc2)NC1=O [(17b), Cyclo (Phe-D-Trp-Phe-Thr-Phe-Pro)] (cyclo(FPF[dW]FT)) | 6.48 | –
16 | C[C@@H](O)[C@@H]1NC(=O)[C@H](CCCCN)NC(=O)[C@@H](Cc2c[nH]c3ccccc23)NC(=O)[C@H](Cc2ccccc2)NC(=O)[C@@H]2CCCN2C(=O)[C@H](Cc2ccccc2)NC1=O [L-363,301, reference compound] (cyclo(PF[dW]KTF)) | – | pIC50 (SRIF receptor; [2]): 7.73
17 | C[C@@H](O)[C@@H]1NC(=O)[C@H](Cc2ccccc2)NC(=O)[C@@H](Cc2c[nH]c3ccccc23)NC(=O)[C@@H](Cc2ccccc2)NC(=O)[C@@H]2CCCN2C(=O)[C@H](Cc2ccccc2)NC1=O [(18f), Cyclo (D-Phe-D-Trp-Phe-Thr-Phe-Pro)] (cyclo(FP[dF][dW]FT)) | 5.95 | –
18 | CO[C@@H]1O[C@H](COCCCCCNC(=O)C(F)(F)F)[C@@H](OCc2ccccc2)[C@H](OCc2ccccc2)[C@H]1OCc1ccccc1 [Compound 13, Methyl 2,3,4-tri-O-benzyl-6-O-(N-trifluoroacetyl-5-aminopentyl)-β-D-glucopyranoside] | – | IC50 (affinity for the SRIF receptor) (SRIF receptor; [2]): does not bind; pIC50 [1]: 6.00
19 | CC(C)C[C@@H]1NC(=O)[C@@H](Cc2c[nH]c3ccccc23)NC(=O)[C@H](Cc2ccccc2)NC(=O)[C@@H]2CCCN2C(=O)[C@H](Cc2ccccc2)NC(=O)[C@H]([C@@H](C)O)NC1=O [(17a), Cyclo (Phe-D-Trp-Leu-Thr-Phe-Pro)] (cyclo(FPF[dW]LT)) | 5.47 | –
20 | COc1ccc(C[C@@H]2NC(=O)[C@@H](Cc3c[nH]c4ccccc34)NC(=O)[C@H](Cc3ccccc3)NC(=O)[C@@H]3CCCN3C(=O)[C@H](Cc3ccccc3)NC(=O)[C@H]([C@@H](C)O)NC2=O)cc1 [(17e), Cyclo (Phe-D-Trp-p-MeO-Phe-Thr-Phe-Pro)] (cyclo(FPF[dW]Y(Me)T)) | 6.89 | –
21 | C[C@@H](O)[C@@H]1NC(=O)[C@H](Cc2ccccc2)NC(=O)[C@@H](Cc2c[nH]c3ccccc23)NC(=O)[C@H](Cc2cccc3ccccc23)NC(=O)[C@@H]2CCCN2C(=O)[C@H](Cc2ccccc2)NC1=O [(18i), Cyclo (Nal-D-Trp-Phe-Thr-Phe-Pro)] (cyclo([1Nal][dW]FTFP)) | 7.66 | –
22 | C[C@@H](O)[C@@H]1NC(=O)[C@H](Cc2ccc(F)cc2)NC(=O)[C@@H](Cc2c[nH]c3ccccc23)NC(=O)[C@H](Cc2cccc3ccccc23)NC(=O)[C@@H]2CCCN2C(=O)[C@H](Cc2ccccc2)NC1=O [Compound (19), Cyclo (Nal-D-Trp-p-F-Phe-Thr-Phe-Pro)] (cyclo([1Nal][dW][Phe(4-F)]TFP)) | 8.55 | –
